In US20130273649A1, “Culture medium for pluripotent stem cells” (UNIVERSITY OF SOUTHERN CALIFORNIA, priority 2012, published 2013):

Tests used:
Axin1 = assay: Western blot of Axin1 in mouse EpiSCs; format: cell-based; conditions: CD1 mouse EpiSCs treated 12 h
Experimental: (§1) (A) TOPFlash™ assay in CD1 mouse EpiSCs treated with the indicated inhibitors for 12 hours. Data represent mean±s.d. of three biological replicates. (B) Representative phase contrast images of CD1 mouse EpiSCs cultured in the indicated conditions for 7 days. (C) Western blot analysis of CD1 mouse EpiSCs treated with the indicated inhibitors for 12 h. (D) qRT-PCR analysis of Axin1 and Axin2 mRNA levels in CD1 mouse EpiSCs stably transfected with Axin1 shRNA or Axin2 shRNA. Data represent mean±s.d. of three biological replicates. (E) Colony assay on CD1 mouse EpiSCs stably transfected with scramble, Axin1, or Axin2 shRNAs. Cells were plated onto a 6-well plate at a density of 5,000 cells/well and cultured in CHIR/IWR-1. Colonies were counted 7 days after plating. Data represent the total combined numbers of colonies from two independent experiments in which each shRNA-transfected group was cultured in one well of a 6-well plate. (F) Representative phase contrast images of CD 1 mouse EpiSCs stably transfected with the indicated shRNAs and cultured in CHIR/IWR-1 for 7 days. (G) Western blot analysis of CD1 mouse EpiSCs overexpressing Flag-tagged Axin1 or Axin2. (H) Representative phase contrast images of CD1 mouse EpiSCs overexpressing Axin1 or Axin2 and cultured in CHIR for 7 days. Axin2-overexpressing EpiSCs could be continually passaged in CHIR alone. Scale bars, 50 μm (B, F and H)
Next, we investigated the mechanism by which CHIR/XAV promotes EpiSC self-renewal. By inhibiting GSK3 phosphorylation of β-catenin, CHIR stabilizes β-catenin, which then trans-locates to the nucleus and forms complexes with DNA-binding proteins, including TCFs, to activate transcription (Logan and Nusse, 2004). […] Axin has two isoforms, Axin1 and Axin2. […] The expression level of Axin2, but not Axin1, was also elevated by CHIR treatment (FIG. 4C), an outcome consistent with previous findings that Axin2 is a direct downstream target of Wnt/β-catenin signaling (Jho et al., 2002). […]

[1] = test system: β-catenin/TCF-responsive TOPFlash reporter; assay: TOPFlash reporter assay in mouse EpiSCs; format: cell-based; conditions: CD1 mouse EpiSCs, 12 hours
Experimental: as §1
Next, we investigated the mechanism by which CHIR/XAV promotes EpiSC self-renewal. By inhibiting GSK3 phosphorylation of β-catenin, CHIR stabilizes β-catenin, which then trans-locates to the nucleus and forms complexes with DNA-binding proteins, including TCFs, to activate transcription (Logan and Nusse, 2004). […]
For quantifying relative Oct3/4 enhancer activities, pGL3-Oct4 DE and pGL3-Oct4 PE plasmids (gifts from Hans Schöler's lab) were co-transfected with the Renilla vector, using the Amaxa™ Transfection Kit (Lonza). […] For quantifying relative β-catenin/Tcf transcriptional activity, pGL2-SuperTOP™ plasmid (gift from Randall Moon) was co-transfected with the Renilla vector and assayed accordingly.

| SMILES | amount of Axin1 protein (Axin1) | TOPFlash reporter activity [1] | effect on TOPFlash activity induced by CHIR ([1]; added to CHIR) |
| --- | --- | --- | --- |
| Cc1c[nH]c(-c2cnc(NCCNc3ccc(C#N)cn3)nc2-c2ccc(Cl)cc2Cl)n1 [CHIR99021, 6-((2-((4-(2,4-Dichlorophenyl)-5-(4-methyl-1H-imidazol-2-yl)pyrimidin-2-yl)amino)ethyl)amino)nicotinonitrile] | not Axin1 | strongly induced | – |
| Oc1nc(-c2ccc(C(F)(F)F)cc2)nc2c1CSCC2 [XAV939, 3,5,7,8-Tetrahydro-2-[4-(trifluoromethyl)phenyl]-4H-thiopyrano[4,3-d]pyrimidin-4-one] | significantly increased | – | abolished the TOPFlash activity induced by CHIR |
